# Target: T1, hyaluronidase
# T1 construct: gene SPAM1
# Assay: turbidimetric assay, CTAB precipitation of undigested hyaluronic acid, absorbance […] nm
# Type: biochemical
# Details: hyaluronic acid 0.3 mg/mL, acetate buffer pH 4.5, bovine albumin and NaCl present, 37 °C, 10 min preincubation, 45 min reaction
smiles,measurement,value
O=C(O)[C@H]1O[C@@H](Oc2cc3oc(-c4ccccc4)cc(=O)c3c(O)c2O)[C@H](O)[C@@H](O)[C@@H]1O [Baicalin],Ability to Inhibit the Enzyme Hyaluronidase IC50,1210 ± 60 µg/mL

# Reference: paper PMC9611887, “Chitosan as a Functional Carrier for the Local Delivery Anti-Inflammatory Systems Containing Scutellariae baicalensis radix Extract” (Pharmaceutics, 2022)
